Laboratory results reported in ChEMBL document CHEMBL6078680, “Improving the Stability and Anti-Infective Activity of Sea Turtle AMPs Using Multiple Structural Modification Strategies” (J Med Chem, 2024).
The source made the active and inactive calls. The calls are words filed in the database; no cut-off is given here. Non-standard residues stand in square brackets, D forms with d. Residues, ends and D or L forms follow the SMILES beside them. Orn = NCCC[C@H](N)C(=O)O

Tests used:
Enterococcus faecium = experiment: Antimicrobial activity against Enterococcus faecium 34 assessed as reduction in microbial growth incubated for 18 hrs by broth microdilution method; type: functional
Escherichia coli [1] = experiment: Antimicrobial activity against Escherichia coli ATCC 25922 assessed as reduction in microbial growth incubated for 18 hrs by broth microdilution method; type: functional
Escherichia coli [2] = experiment: Antimicrobial activity against Escherichia coli CMCC44102 assessed as reduction in microbial growth incubated for 18 hrs by broth microdilution method; type: functional
Acinetobacter baumannii [3] = experiment: Antimicrobial activity against Acinetobacter baumannii ATCC19606 assessed as reduction in microbial growth incubated for 18 hrs by broth microdilution method; type: functional
Pseudomonas aeruginosa = experiment: Antimicrobial activity against Pseudomonas aeruginosa CMCC10104 assessed as reduction in microbial growth incubated for 18 hrs by broth microdilution method; type: functional
Salmonella enteritidis = experiment: Antimicrobial activity against Salmonella enterica subsp. enterica serovar Enteritidis ATCC 14028 assessed as reduction in microbial growth incubated for 18 hrs by broth microdilution method; type: functional
Staphylococcus aureus [4] = experiment: Antimicrobial activity against Staphylococcus aureus CMCC 26003 assessed as reduction in microbial growth incubated for 18 hrs by broth microdilution method; type: functional
Clostridium perfringens = experiment: Antimicrobial activity against Clostridium perfringens ATCC 13124 assessed as reduction in microbial growth incubated for 18 hrs by broth microdilution method; type: functional
Staphylococcus aureus [5] = experiment: Antimicrobial activity against Staphylococcus aureus ATCC 43300 assessed as reduction in microbial growth incubated for 18 hrs by broth microdilution method; type: functional
Staphylococcus aureus [6] = experiment: Antimicrobial activity against Staphylococcus aureus 08032706 assessed as reduction in microbial growth incubated for 18 hrs by broth microdilution method; type: functional
[7] = Hemolytic activity at human Erythrocyte assessed as hemolysis at 100 microg/ml; type: toxicity, cell-based; conditions: erythrocytes, at 100 µg/mL, read-out: Activity
Peritoneal macrophage [8] = experiment: Antiinflammatory activity in mouse Peritoneal macrophage cells assessed as inhibition of LPS-induced TNF-alpha production at 20 microg/ml incubated for 6 hrs by ELISA analysis; type: functional, cell-based; conditions: dose 20.0 µg/ml
Peritoneal macrophage [9] = experiment: Antiinflammatory activity in mouse Peritoneal macrophage cells assessed as inhibition of LPS-induced IL-6 production at 20 microg/ml incubated for 6 hrs by ELISA analysis; type: functional, cell-based; conditions: dose 20.0 µg/ml
Staphylococcus aureus [10] = experiment: Antimicrobial activity against Staphylococcus aureus CMCC 26003 at 5 times MIC measured at 180 mins; type: functional, organism-based
Acinetobacter baumannii [11] = experiment: Drug resistance, ratio of MIC for Acinetobacter baumannii ATCC1960 after 40 passages to MIC for Acinetobacter baumannii ATCC1960 during first exposure; type: functional
Escherichia coli [12] = experiment: Drug resistance, ratio of MIC for Escherichia coli ATCC 25922 after 40 passages to MIC for Escherichia coli ATCC 25922 during first exposure; type: functional
Staphylococcus aureus [13] = experiment: Antibiofilm activity against Staphylococcus aureus CMCC 26003 assessed as inhibition of biofilm formation incubated for 48 hrs by crystal violet staining based analysis; type: functional, organism-based
Acinetobacter baumannii [14] = experiment: Antibiofilm activity against Acinetobacter baumannii ATCC 19606 assessed as inhibition of biofilm formation incubated for 48 hrs by crystal violet staining based analysis; type: functional, organism-based
Acinetobacter baumannii [15] = experiment: Antibiofilm activity against Acinetobacter baumannii ATCC 19606 assessed as biofilm eradication incubated for 24 hrs by crystal violet staining based analysis; type: functional, organism-based
Acinetobacter baumannii [16] = experiment: Antibiofilm activity against Acinetobacter baumannii ATCC 19606 assessed as inhibition of biofilm formation at 0.5 times MIC incubated for 48 hrs by crystal violet staining based analysis; type: functional
Staphylococcus aureus [17] = experiment: Antibiofilm activity against Staphylococcus aureus CMCC 26003 assessed as biofilm eradication at 0.5 to 2 times MIC incubated for 24 hrs by crystal violet staining based analysis; type: functional
Acinetobacter baumannii [18] = experiment: Antipersister-activity against Acinetobacter baumannii ATCC 19606 assessed as elimination of persister cells at 50 times MIC preincubated adherent persistent cells with colistin incubation for 24 hrs; type: functional
Staphylococcus aureus [19] = experiment: Antipersister-activity against Staphylococcus aureus CMCC 26003 assessed as elimination of persister cells at 50 times MIC preincubated adherent persistent cells with colistin incubation for 24 hrs; type: functional
Cell membrane [20] = experiment: Disruption of cell membrane integrity in Escherichia coli ATCC 25922 assessed as cell membrane damage at 5 times MIC measured after 30 mins by scanning electron microscopic analysis; type: subcellular
Cell membrane [21] = experiment: Disruption of cell membrane integrity in Staphylococcus aureus CMCC 26003 assessed as cell membrane damage at 5 times MIC measured after 30 mins by scanning electron microscopic analysis; type: subcellular
Escherichia coli [22] = experiment: Antibacterial activity against Escherichia coli ATCC 25922 assessed as increase in intracellular ROS production at 1 times MIC by DCFH-DA staining based assay; type: functional, organism-based
Escherichia coli [23] = experiment: Antibacterial activity against Escherichia coli ATCC 25922 at 1 times MIC in presence of exogenous DNA; type: functional, organism-based
[24] = Acute toxicity in BALB/c mouse assessed as mortality at 10 mg/kg, iv measured for 24 hrs; type: organism-based; conditions: in vivo, read-out: Activity
[25] = Acute toxicity in BALB/c mouse assessed as effect on BUN level at 10 mg/kg, iv measured for 24 hrs; type: organism-based; conditions: in vivo
[26] = Acute toxicity in BALB/c mouse assessed as effect on ALT level at 10 mg/kg, iv measured for 24 hrs; type: organism-based; conditions: in vivo
Acinetobacter baumannii [27] = experiment: In vivo antibacterial activity against Acinetobacter baumannii ATCC19606 infected in BALB/c mouse assessed as survival at 15 mg/kg, ip administered for 12 hrs and measured on day 7; type: functional; conditions: ATCC19606, 168 h, time 7 day
Acinetobacter baumannii [28] = experiment: In vivo antibacterial activity against Acinetobacter baumannii ATCC19606 infected in BALB/c mouse assessed as survival at 15 mg/kg, ip administered for 12 hrs and measured after 3 hrs; type: functional; conditions: time 15 hrs
Acinetobacter baumannii [29] = experiment: In vivo antibacterial activity against Acinetobacter baumannii ATCC19606 infected in BALB/c mouse assessed as reduction in bacterial load at 15 mg/kg, ip; type: functional, organism-based; conditions: time 3.0 hrs
Acinetobacter baumannii [30] = experiment: In vivo antibacterial activity against Acinetobacter baumannii ATCC19606 infected in BALB/c mouse assessed as reduction in bacterial load in liver at 15 mg/kg, ip measured after 3 hrs; type: functional, organism-based
Acinetobacter baumannii [31] = experiment: In vivo antibacterial activity against Acinetobacter baumannii ATCC19606 infected in BALB/c mouse assessed as reduction in bacterial load in lung at 15 mg/kg, ip measured after 3 hrs; type: functional, organism-based
Acinetobacter baumannii [32] = experiment: In vivo antibacterial activity against Acinetobacter baumannii ATCC19606 infected in BALB/c mouse assessed as reduction in bacterial load in kidney at 15 mg/kg, ip measured after 3 hrs; type: functional, organism-based
Acinetobacter baumannii [33] = experiment: In vivo antibacterial activity against Acinetobacter baumannii ATCC19606 infected in BALB/c mouse assessed as reduction in bacterial load in liver at 15 mg/kg, ip measured after 12 hrs; type: functional, organism-based
Acinetobacter baumannii [34] = experiment: In vivo antibacterial activity against Acinetobacter baumannii ATCC19606 infected in BALB/c mouse assessed as reduction in bacterial load in lung at 15 mg/kg, ip measured after 12 hrs; type: functional, organism-based
Acinetobacter baumannii [35] = experiment: In vivo antibacterial activity against Acinetobacter baumannii ATCC19606 infected in BALB/c mouse assessed as reduction in bacterial load in kidney at 15 mg/kg, ip measured after 12 hrs; type: functional, organism-based

Work on `CC[C@H](C)[C@H](NC(=O)[C@H](CCCN)NC(=O)[C@H](CO)NC(=O)[C@H](Cc1c[nH]cn1)NC(=O)[C@H](CCCN)NC(=O)[C@H](CC(C)C)NC(=O)[C@@H](NC(=O)[C@H](CCCN)NC(=O)CNC(=O)[C@H](CC(C)C)NC(=O)[C@H](CCC(N)=O)NC(=O)[C@H](CCCN)NC(=O)[C@H](CCCN)NC(=O)[C@@H](NC(=O)[C@H](CCCN)NC(=O)[C@H](CCCN)NC(=O)[C@@H](N)Cc1ccccc1)C(C)C)C(C)C)C(=O)N[C@H](C(=O)N[C@H](C(=O)NCC(=O)NCC(=O)N[C@@H](CCCN)C(=O)N[C@@H](CCSC)C(=O)N[C@@H](CCCN)C(=O)N[C@@H](Cc1ccccc1)C(=O)O)C(C)C)[C@@H](C)O` (H-F[Orn][Orn]V[Orn][Orn]QLG[Orn]VL[Orn]HS[Orn]ITVGG[Orn]M[Orn]F-OH) yielded an MIC (Enterococcus faecium) of 9.38 µg/mL, an MIC (Escherichia coli [1]) of 9.38 µg/mL and an MIC (Escherichia coli [2]) of 18.8 µg/mL. For the same compound, the MIC (Acinetobacter baumannii [3]) was 9.38 µg/mL, the MIC (Pseudomonas aeruginosa) was 75 µg/mL and the MIC (Salmonella enteritidis) was 37.5 µg/mL. It also gave an MIC (Staphylococcus aureus [4]) of 75 µg/mL, an MIC (Clostridium perfringens) of 18.8 µg/mL and an MIC (Staphylococcus aureus [5]) of over 100 µg/mL. The MIC (Staphylococcus aureus [6]) was 37.5 µg/mL, the hemolysis at 100 microg/ml [7] was under 5% and the Activity (Peritoneal macrophage [8]) was “Active”. The Activity (Peritoneal macrophage [9]) was “Active”, the Activity (Staphylococcus aureus [10]) was “inactive” and the Ratio (Acinetobacter baumannii [11]) was 1. The Ratio (Escherichia coli [12]) was 1, the Activity (Staphylococcus aureus [13]) was “Active” and the Activity (Acinetobacter baumannii [14]) was “Active”. For the same compound, the Activity (Acinetobacter baumannii [15]) was “Active”, the “inhibition (INH)” value (Acinetobacter baumannii [16]) was 10% and the Activity (Staphylococcus aureus [17]) was 20%. The Activity (Acinetobacter baumannii [18]) was 60%, the Activity (Staphylococcus aureus [19]) was 50% and the Activity (Cell membrane [20]) was “Active”. For the same compound, the Activity (Cell membrane [21]) was “Active”, the Activity (Escherichia coli [22]) was “Active” and the Activity (Escherichia coli [23]) was “Active”. For the same compound, the mortality at 24 h [24] was 0%, the Activity [25] was “Non-toxic” and the Activity [26] was “Non-toxic”. The survival at 15 mg/kg (Acinetobacter baumannii [27]) was 40%, the Activity (Acinetobacter baumannii [28]) was over 60% and the Activity (Acinetobacter baumannii [29]) was “Time-dependent-effect”. The Activity (Acinetobacter baumannii [30]) was “Active”, the Activity (Acinetobacter baumannii [31]) was “Active” and the Activity (Acinetobacter baumannii [32]) was “Active”. For the same compound, the Activity (Acinetobacter baumannii [33]) was “Active”, the Activity (Acinetobacter baumannii [34]) was “Active” and the Activity (Acinetobacter baumannii [35]) was “Active”.
